This data set deals with oligonucleotide complementary to the probe with the exception of the base complementary to the dI at position 15. The data set can be described thus: Specificity of the array of probes: hybridization with a single-mismatch oligonucleotide. Type of data set: binding.

[I] = hypoxanthine (inosine)

As a reminder, the Tm is the temperature at which the thermal transition is half complete.

As to “d(CAITICGTIITCCTITT) (DNA CANTNCGTNNTCCTNTT; DNA, [I] at 3, 5, 9, 10, 15, backbone not given here) [SEQ ID No. 32]”, for the setting “at the hybridization temperature chosen for all probes (between 61.1 and 54.13° C., preferably about 57.6° C.)”, the “hybridization with mismatched oligonucleotide” value is “does not hybridize”. For the same substance, the Tm (duplex with oligonucleotide mismatched opposite the dI at position 15 of the probe) came out at 49.4 °C.

The record behind these values is patent US20080075662A1, “Novel Method for Analyzing Nucleic Acid Et Use Thereof for Evaluating the Degree of Mrna Editing of the Serotonin 5-Ht2c Receptor” (priority 2002, published 2008).
